± gives the expanded uncertainty stated by the source.
Columns and labels:
[1] = molar heat capacity at constant pressure; conditions: 101.33 kPa, Crystal, Thin-film microcalorimeter
[2] = 101.33 kPa, Crystal, Thin-film microcalorimeter

[O-2].[Zn+2] [zinc(II) oxide]
Conditions	molar entropy, [2] [J/K/mol]	molar heat capacity at constant pressure, [1] [J/K/mol]
1 K	2e-05 ± 2e-06	–
2 K	0.0001 ± 0.0001	–
3 K	0.0005 ± 0.0001	–
4 K	0.0012 ± 0.0001	–
5 K	0.0023 ± 0.0002	–
6 K	0.004 ± 0.0002	–
7 K	0.0064 ± 0.0004	–
8 K	0.0096 ± 0.0006	–
9 K	0.0136 ± 0.0008	–
10 K	0.0188 ± 0.0006	–
11 K	0.0252 ± 0.0008	–
12 K	0.0332 ± 0.001	–
13 K	0.0428 ± 0.0013	–
14 K	0.0545 ± 0.0017	–
15 K	0.0684 ± 0.0021	–
16 K	0.085 ± 0.0026	–
17 K	0.1045 ± 0.0032	–
18 K	0.1272 ± 0.0038	–
19 K	0.1533 ± 0.0046	–
20 K	0.1833 ± 0.0055	–
25 K	0.3964 ± 0.012	–
30 K	0.7254 ± 0.022	–
35 K	1.169 ± 0.035	–
40 K	1.714 ± 0.051	–
45 K	2.341 ± 0.07	–
50 K	3.035 ± 0.091	–
55 K	3.781 ± 0.11	–
60 K	4.569 ± 0.14	–
65 K	5.382 ± 0.16	–
70 K	6.216 ± 0.19	–
75 K	7.065 ± 0.21	–
80 K	7.928 ± 0.24	–
85 K	8.798 ± 0.26	–
90 K	9.675 ± 0.29	–
95 K	10.56 ± 0.32	–
100 K	11.44 ± 0.34	–
110 K	13.21 ± 0.4	–
120 K	14.98 ± 0.45	–
130 K	16.73 ± 0.5	–
140 K	18.48 ± 0.55	–
150 K	20.21 ± 0.61	–
160 K	21.92 ± 0.66	–
170 K	23.61 ± 0.71	28.58 ± 0.57
170.76 K	–	28.78 ± 0.58
180 K	25.28 ± 0.76	29.85 ± 0.6
181.03 K	–	30.05 ± 0.6
190 K	26.93 ± 0.81	31.05 ± 0.62
191.32 K	–	31.22 ± 0.62
200 K	28.55 ± 0.86	32.19 ± 0.64
201.42 K	–	32.29 ± 0.65
210 K	30.15 ± 0.9	33.26 ± 0.67
211.59 K	–	33.41 ± 0.67
220 K	31.72 ± 0.95	34.27 ± 0.69
221.8 K	–	34.44 ± 0.69
230 K	33.26 ± 1	35.22 ± 0.7
232 K	–	35.5 ± 0.71
240 K	34.78 ± 1	36.12 ± 0.72
242.17 K	–	36.29 ± 0.73
250 K	36.27 ± 1.1	36.96 ± 0.74
252.15 K	–	37.15 ± 0.74
260 K	37.74 ± 1.1	37.76 ± 0.76
262.28 K	–	37.93 ± 0.76
270 K	39.18 ± 1.2	38.5 ± 0.77
272.28 K	–	38.59 ± 0.77
273.15 K	39.63 ± 1.2	38.73 ± 0.77
280 K	40.59 ± 1.2	39.2 ± 0.78
282.48 K	–	39.3 ± 0.79
290 K	41.98 ± 1.3	39.86 ± 0.8
292.54 K	–	39.86 ± 0.8
298.15 K	43.09 ± 1.3	40.36 ± 0.81
300 K	43.34 ± 1.3	40.48 ± 0.81
302.58 K	–	40.86 ± 0.82

Source: the NIST ThermoML archive (doi:10.1016/j.jct.2013.01.004)
